Experimental data published in patent publication US10975037B2 (priority 2018, dated 2021).
Like-named read-outs stand apart in the source and are kept apart here.

What was measured:
[1] = target: human RORγt ligand binding domain (RORγt LBD) (Homo sapiens (Human), UniProt P51449); experiment: RORγt ThermoFluor® assay (thermal shift binding); settings: read-out: ThermoFluor® Assay, Kd
How it was run: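 Thermal shift with 0.065 mg/mL RORγt LBD and 60 μM 1,8-ANS in 100 mM Hepes pH 7.0, 10 mM NaCl, 2.5 mM GSH, 0.002% Tween-20.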

full-length human RORγt = full-length human RORγt (Homo sapiens (Human), UniProt P51449); experiment: RORγt (full-length human) reporter assay, conditions A or B, HEK293T cells; format: cell-based; settings: for IC50: RORγt (FL) Reporter Assay A or B, IC50, HEK293T cells; for inhibition at 2 µM: 2 μM compound concentration
Sequence of full-length human RORγt (P51449 other isoform, or with tags, fused parts or gaps): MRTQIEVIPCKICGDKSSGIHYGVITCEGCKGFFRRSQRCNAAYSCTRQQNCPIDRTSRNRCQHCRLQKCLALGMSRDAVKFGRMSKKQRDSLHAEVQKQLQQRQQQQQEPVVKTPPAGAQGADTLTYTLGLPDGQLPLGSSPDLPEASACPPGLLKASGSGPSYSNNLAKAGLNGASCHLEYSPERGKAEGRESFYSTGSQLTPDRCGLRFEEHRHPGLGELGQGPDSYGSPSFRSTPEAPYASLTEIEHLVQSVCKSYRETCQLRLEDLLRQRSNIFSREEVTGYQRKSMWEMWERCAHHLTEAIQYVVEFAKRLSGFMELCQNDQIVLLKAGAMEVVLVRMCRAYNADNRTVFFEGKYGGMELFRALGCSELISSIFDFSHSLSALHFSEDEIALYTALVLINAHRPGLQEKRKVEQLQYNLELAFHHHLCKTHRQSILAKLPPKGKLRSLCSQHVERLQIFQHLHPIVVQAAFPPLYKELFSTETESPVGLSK
How it was run: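 After 16–20 h, dual firefly/Renilla luciferase luminescence was read. Firefly signal was normalized to DMSO and saturating reference compound, then to Renilla, and fitted for IC50; % inhibition is versus DMSO.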

[2] = HEK-293T, read-out: RORγt (FL) Reporter Assay A or B, % inhibition
[3] = HEK-293T, 0.22 μM compound concentration (footnote *******), read-out: RORγt (FL) Reporter Assay A or B, % inhibition
[4] = HEK-293T, 0.67 μM compound concentration (footnote ****), read-out: RORγt (FL) Reporter Assay A or B, % inhibition

Sequence of human RORγt ligand binding domain (RORγt LBD) (P51449 other isoform, or with tags, fused parts or gaps): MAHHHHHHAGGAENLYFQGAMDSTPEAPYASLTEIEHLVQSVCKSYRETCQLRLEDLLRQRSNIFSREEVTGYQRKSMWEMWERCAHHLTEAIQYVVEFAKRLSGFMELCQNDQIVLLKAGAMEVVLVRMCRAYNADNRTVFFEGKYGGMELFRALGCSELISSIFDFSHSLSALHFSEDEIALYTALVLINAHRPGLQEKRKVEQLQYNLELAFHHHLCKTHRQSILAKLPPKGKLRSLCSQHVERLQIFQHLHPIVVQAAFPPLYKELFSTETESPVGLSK

Structure (SMILES)	Kd [1] [nM]	IC50 (full-length human RORγt) [nM]	also measured
Cn1nc(C(=O)NC[C@H]2CC[C@H](S(C)(=O)=O)CC2)c(Cl)c1-c1ccc(CC(C)(C)C(F)(F)F)cc1OC(F)F [Example 155, 4-Chloro-5-(2-(difluoromethoxy)-4-(3,3,3-trifluoro-2,2-dimethylpropyl)phenyl)-1-methyl-N-(((1r,4r)-4-(methylsulfonyl)cyclohexyl)methyl)-1H-pyrazole-3-carboxamide]	0.33	4.2	
CCS(=O)(=O)[C@H]1CC[C@H](CNC(=O)c2nn(C)c(-c3ccc(CC(C)(C)C(F)(F)F)cc3OC(F)F)c2Cl)CC1 [Example 156, 4-Chloro-5-(2-(difluoromethoxy)-4-(3,3,3-trifluoro-2,2-dimethylpropyl)phenyl)-N-(((1r,4r)-4-(ethylsulfonyl)cyclohexyl)methyl)-1-methyl-1H-pyrazole-3-carboxamide]	1.5	20	inhibition at […] (full-length human RORγt; HEK-293T, 0.33 μM compound concentration (footnote *****), read-out: RORγt (FL) Reporter Assay A or B, % inhibition): 89%
Cc1c(C(=O)NC[C@]2(O)CC[C@@H](S(C)(=O)=O)CC2)nn(C)c1-c1ccc(CC(C)(C)C(F)(F)F)cc1OC(F)F [Example 157, 5-(2-(Difluoromethoxy)-4-(3,3,3-trifluoro-2,2-dimethylpropyl)phenyl)-N-(((1s,4s)-1-hydroxy-4-(methylsulfonyl)cyclohexyl)methyl)-1,4-dimethyl-1H-pyrazole-3-carboxamide]	0.8	13	inhibition at 0.3 µM (full-length human RORγt; [2]): 101%
Cn1nc(C(=O)NC[C@]2(O)CC[C@@H](S(C)(=O)=O)CC2)c(Cl)c1-c1ccc(CCCC(F)(F)F)cc1OC(F)F [Example 158, 4-Chloro-5-(2-(difluoromethoxy)-4-(4,4,4-trifluorobutyl)phenyl)-N-(((1s,4s)-1-hydroxy-4-(methylsulfonyl)cyclohexyl)methyl)-1-methyl-1H-pyrazole-3-carboxamide]	16	3.4	inhibition at 3 µM (full-length human RORγt; HEK-293T, 3 μM compound concentration (footnote *), read-out: RORγt (FL) Reporter Assay A or B, % inhibition): 111%
CCn1nc(C(=O)NC[C@H]2CC[C@H](S(C)(=O)=O)CC2)c(Cl)c1-c1ccc(CC(C)(C)C(F)(F)F)cc1C(F)(F)F [Example 162, 4-Chloro-1-ethyl-N-(((1r,4r)-4-(methylsulfonyl)cyclohexyl)methyl)-5-(4-(3,3,3-trifluoro-2,2-dimethylpropyl)-2-(trifluoromethyl)phenyl)-1H-pyrazole-3-carboxamide]	0.48	5.9	inhibition at […] (full-length human RORγt; [3]): 72%
CCn1nc(C(=O)NC[C@]2(O)CC[C@@H](S(C)(=O)=O)CC2)c(Cl)c1-c1ccc(CC(C)(C)C(F)(F)F)cc1C(F)(F)F [Example 163, 4-Chloro-1-ethyl-N-(((1s,4s)-1-hydroxy-4-(methylsulfonyl)cyclohexyl)methyl)-5-(4-(3,3,3-trifluoro-2,2-dimethylpropyl)-2-(trifluoromethyl)phenyl)-1H-pyrazole-3-carboxamide]	0.63	3.3	inhibition at […] (full-length human RORγt; [3]): 78%
CCn1nc(C(=O)NC[C@]2(O)CC[C@@H](S(C)(=O)=O)CC2)c(Cl)c1-c1ccc(CC(C)(C)C(F)(F)F)cc1Cl [Example 164, 4-Chloro-5-(2-chloro-4-(3,3,3-trifluoro-2,2-dimethylpropyl)phenyl)-1-ethyl-N-(((1s,4s)-1-hydroxy-4-(methylsulfonyl)cyclohexyl)methyl)-1H-pyrazole-3-carboxamide]	0.5	6.6	
CCn1nc(C(=O)NC[C@]2(C#N)CC[C@@H](S(C)(=O)=O)CC2)c(Cl)c1-c1ccc(CC(C)(C)C(F)(F)F)cc1Cl [Example 166, 4-Chloro-5-(2-chloro-4-(3,3,3-trifluoro-2,2-dimethylpropyl)phenyl)-N-(((1s*,4s*)-1-cyano-4-(methylsulfonyl)cyclohexyl)methyl)-1-ethyl-1H-pyrazole-3-carboxamide]	0.71	0.92	inhibition at 0.07 µM (full-length human RORγt; HEK-293T, 0.07 μM compound concentration (footnote *********), read-out: RORγt (FL) Reporter Assay A or B, % inhibition): 88%
CCn1nc(C(=O)NC[C@]2(O)CC[C@@H](S(C)(=O)=O)CC2)c(Cl)c1-c1ccc(CC(C)(C)C(F)(F)F)cc1 [Example 167, 4-Chloro-1-ethyl-N-(((1s,4s)-1-hydroxy-4-(methylsulfonyl)cyclohexyl)methyl)-5-(4-(3,3,3-trifluoro-2,2-dimethylpropyl)phenyl)-1H-pyrazole-3-carboxamide]	8.6	24	inhibition at 0.67 µM (full-length human RORγt; [4]): 83%
CCn1nc(C(=O)NC[C@H]2CC[C@H](S(C)(=O)=O)CC2)c(Cl)c1-c1ccc(CC(C)(C)C(F)(F)F)cc1 [Example 168, 4-Chloro-1-ethyl-N-(((1r,4r)-4-(methylsulfonyl)cyclohexyl)methyl)-5-(4-(3,3,3-trifluoro-2,2-dimethylpropyl)phenyl)-1H-pyrazole-3-carboxamide]	4	18	inhibition at […] (full-length human RORγt; [3]): 71%
CCn1nc(C(=O)NC[C@]2(C#N)CC[C@@H](S(C)(=O)=O)CC2)c(Cl)c1-c1ccc(CC(C)(C)C(F)(F)F)cc1 [Example 169, 4-Chloro-N-(((1s*,4s*)-1-cyano-4-(methylsulfonyl)cyclohexyl)methyl)-1-ethyl-5-(4-(3,3,3-trifluoro-2,2-dimethylpropyl)phenyl)-1H-pyrazole-3-carboxamide]	3.4	41	inhibition at […] (full-length human RORγt; [3]): 85%
CCn1nc(C(=O)NC[C@]2(O)CC[C@@H](S(C)(=O)=O)CC2)c(Cl)c1-c1ccc(CCC(F)(F)F)cc1Cl [Example 173, 4-Chloro-5-(2-chloro-4-(3,3,3-trifluoropropyl)phenyl)-1-ethyl-N-(((1s,4s)-1-hydroxy-4-(methylsulfonyl)cyclohexyl)methyl)-1H-pyrazole-3-carboxamide]	12	28	inhibition at 0.67 µM (full-length human RORγt; [2]): 36%
CCn1nc(C(=O)NC[C@]2(O)CC[C@@H](S(C)(=O)=O)CC2)c(Cl)c1-c1ccc(CC(C)(C)C(F)(F)F)cc1F [Example 178, 4-Chloro-1-ethyl-5-(2-fluoro-4-(3,3,3-trifluoro-2,2-dimethylpropyl)phenyl)-N-(((1s,4s)-1-hydroxy-4-(methylsulfonyl)cyclohexyl)methyl)-1H-pyrazole-3-carboxamide]	2.4	30	inhibition at 0.67 µM (full-length human RORγt; [4]): 89%

Continued, in another order:

Kd [1] [nM]	IC50 (full-length human RORγt) [nM]	Structure (SMILES)	also measured
14	440	CCn1nc(C(=O)NC[C@H]2CC[C@H](S(C)(=O)=O)CC2)c(Cl)c1-c1ccc(CCC(F)(F)F)cc1C(F)(F)F [Example 171, 4-Chloro-1-ethyl-N-(((1r,4r)-4-(methylsulfonyl)cyclohexyl)methyl)-5-(2-(trifluoromethyl)-4-(3,3,3-trifluoropropyl)phenyl)-1H-pyrazole-3-carboxamide]	inhibition at 2 µM (full-length human RORγt; [2]): 24%
3.8	28	CCn1nc(C(=O)NC[C@H]2CC[C@H](S(C)(=O)=O)CC2)c(Cl)c1-c1ccc(N[C@H](C)C(F)(F)F)cc1C(F)(F)F [Example 172, 4-Chloro-1-ethyl-N-(((1r,4R)-4-(methylsulfonyl)cyclohexyl)methyl)-5-(2-(trifluoromethyl)-4-(((R)-1,1,1-trifluoropropan-2-yl)amino)phenyl)-1H-pyrazole-3-carboxamide]	inhibition at 2 µM (full-length human RORγt; [2]): 100%
5.9	38	CCn1nc(C(=O)NC[C@H]2CC[C@H](S(C)(=O)=O)CC2)c(Cl)c1-c1ccc(CCC(F)(F)F)cc1Cl [Example 174, 4-Chloro-5-(2-chloro-4-(3,3,3-trifluoropropyl)phenyl)-1-ethyl-N-(((1r,4r)-4-(methylsulfonyl)cyclohexyl)methyl)-1H-pyrazole-3-carboxamide]	inhibition at 0.67 µM (full-length human RORγt; [2]): 40%
230	510	CCn1nc(C(=O)NC[C@H]2CC[C@@H](S(C)(=O)=O)CC2)c(Cl)c1-c1ccc(N[C@H](C)C(F)(F)F)cc1Cl [Example 175, 4-Chloro-5-(2-chloro-4-(((R)-1,1,1-trifluoropropan-2-yl)amino)phenyl)-1-ethyl-N-(((1s,4S)-4-(methylsulfonyl)cyclohexyl)methyl)-1H-pyrazole-3-carboxamide]	inhibition at 2 µM (full-length human RORγt; [2]): 88%
3.8	18	CCn1nc(C(=O)NC[C@H]2CC[C@H](S(C)(=O)=O)CC2)c(Cl)c1-c1ccc(N[C@H](C)C(F)(F)F)cc1Cl [Example 176, 4-Chloro-5-(2-chloro-4-(((R)-1,1,1-trifluoropropan-2-yl)amino)phenyl)-1-ethyl-N-(((1r,4R)-4-(methylsulfonyl)cyclohexyl)methyl)-1H-pyrazole-3-carboxamide]	inhibition at 0.67 µM (full-length human RORγt; [4]): 102%
2.2	7.2	CCn1nc(C(=O)NC[C@H]2CC[C@H](S(C)(=O)=O)CC2)c(Cl)c1-c1ccc(CC(C)(C)C(F)(F)F)cc1F [Example 177, 4-Chloro-1-ethyl-5-(2-fluoro-4-(3,3,3-trifluoro-2,2-dimethylpropyl)phenyl)-N-(((1r,4r)-4-(methylsulfonyl)cyclohexyl)methyl)-1H-pyrazole-3-carboxamide]	inhibition at […] (full-length human RORγt; [3]): 77%
